These results are taken from patent publication US20100179093A1, “Neoropeptide-2-Receptor (Y-2R) Agonists” (priority 2008, published 2010).

Holding throughout (type): cell-based
One assay has as its target T1, Y5R (Homo sapiens, UniProt Q15761).
T1 sequence (Q15761 1-445): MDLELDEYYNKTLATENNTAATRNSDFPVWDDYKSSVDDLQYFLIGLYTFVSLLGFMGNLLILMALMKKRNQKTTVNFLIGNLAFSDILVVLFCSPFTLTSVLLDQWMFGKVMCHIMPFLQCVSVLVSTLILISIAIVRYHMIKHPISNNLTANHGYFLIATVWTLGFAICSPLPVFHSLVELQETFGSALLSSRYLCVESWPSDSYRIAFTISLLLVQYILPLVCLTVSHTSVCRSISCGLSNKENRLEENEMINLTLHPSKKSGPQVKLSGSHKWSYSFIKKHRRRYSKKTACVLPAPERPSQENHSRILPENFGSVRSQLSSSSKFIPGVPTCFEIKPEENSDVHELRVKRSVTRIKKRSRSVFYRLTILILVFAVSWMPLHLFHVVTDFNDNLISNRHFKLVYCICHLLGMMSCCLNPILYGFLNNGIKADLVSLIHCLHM
The assay can be described thus: CaFlux Assay (FLIPR), Y5R.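 As to Emax: percent of the maximal response of the positive control agonist.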 The settings on record: for Emax: read-out: Y5R FLIPR, percentage in parentheses under the EC50.

For assay [1], the target named is T2, hNPY2R (Homo sapiens, UniProt P49146).
T2 sequence (P49146 1-381): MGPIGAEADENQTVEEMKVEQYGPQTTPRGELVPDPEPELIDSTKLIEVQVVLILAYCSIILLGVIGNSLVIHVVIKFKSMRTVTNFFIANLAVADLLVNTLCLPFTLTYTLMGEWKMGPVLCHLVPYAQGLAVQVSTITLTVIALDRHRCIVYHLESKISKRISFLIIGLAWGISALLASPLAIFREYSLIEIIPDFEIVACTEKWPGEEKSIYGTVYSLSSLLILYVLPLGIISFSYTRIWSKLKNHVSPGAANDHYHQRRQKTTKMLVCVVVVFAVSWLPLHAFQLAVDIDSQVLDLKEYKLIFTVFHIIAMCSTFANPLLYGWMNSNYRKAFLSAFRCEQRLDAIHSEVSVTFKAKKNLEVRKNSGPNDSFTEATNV
The assay can be described thus: cAMP Agonist Assay, HEK293/hNPY2R cells. Further details: expressed in transfected cells; host or cells: HEK293/hNPY2R (G418 selection).
Protocol: On the first day, medium was discarded, and the monolayer cells were washed with 10 mL PBS per flask (T225). […] The flask was gently tapped and the cell suspension was pooled. Each flask was rinsed with 10 mL plating medium and centrifuged at 1000 rpm for 5 min. The suspension was pooled and counted. The suspension was resuspended in plating medium at a density of 2.0×10^5 cells/mL for HEK293/hNPY2R. 50 microliters of cells (HEK293/hNPY2R-10,000 cells/well) were transferred into the 384-well plate using Multi-drop dispenser. The plates were incubated at 37° C. overnight. […] The media and reagents were allowed to come to room temperature. Before the dilutions were prepared, the stock solution of stimulating compound in dimethyl sulphoxide (DMSO, Sigma, cat #D2650) was allowed to warm up to 32 C for 5-10 min. […] The cell medium was tapped off with a gentle inversion of the cell plate on a paper towel. 50 μL of stimulation medium was placed per well (each concentration done in four replicates). The plates were incubated at room temperature for 30 min, and the cells were checked under a microscope for toxicity. After 30 minutes of treatment, the stimulation media was discarded and 50 mL/well of Assay Lysis Buffer (provided in the Tropix kit) was added. The plates were incubated for 45 min@37° C. 20 μL of the lysate was transferred from stimulation plates into the pre-coated antibody plates (384-well) from the Tropix kit. 10 μL of AP conjugate and 20 μL of anti-cAMP antibody was added. The plates were incubated at room temperature while shaking for 1 hour. The plates were then washed 5 times with Wash Buffer, 70 μL per well for each wash. The plates were tapped to dry. 30 μL/well of CSPD/Saphire-II RTU substrate/enhancer solution was added and incubated for 45 min @ RT (shake). Signal for 1 sec/well in a Luminometer.

In the next assay the target is T3, Y1R (Homo sapiens, UniProt P25929).
T3 sequence (P25929 1-384): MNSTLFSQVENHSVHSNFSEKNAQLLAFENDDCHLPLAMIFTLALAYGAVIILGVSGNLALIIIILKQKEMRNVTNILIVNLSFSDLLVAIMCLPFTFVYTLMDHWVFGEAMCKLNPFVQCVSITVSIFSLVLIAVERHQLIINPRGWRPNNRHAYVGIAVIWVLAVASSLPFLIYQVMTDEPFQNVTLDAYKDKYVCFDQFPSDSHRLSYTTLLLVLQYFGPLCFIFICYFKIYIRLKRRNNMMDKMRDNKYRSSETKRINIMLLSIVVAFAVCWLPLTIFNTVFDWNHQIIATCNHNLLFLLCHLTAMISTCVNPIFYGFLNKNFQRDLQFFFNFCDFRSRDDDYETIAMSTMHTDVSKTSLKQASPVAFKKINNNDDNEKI
The assay can be described thus: CaFlux Assay (FLIPR), Y1R.

The target of a further assay is Y4R (Homo sapiens, UniProt P50391). Put plainly: CaFlux Assay (FLIPR), Y4R.
Y4R, sequence (P50391 whole entry): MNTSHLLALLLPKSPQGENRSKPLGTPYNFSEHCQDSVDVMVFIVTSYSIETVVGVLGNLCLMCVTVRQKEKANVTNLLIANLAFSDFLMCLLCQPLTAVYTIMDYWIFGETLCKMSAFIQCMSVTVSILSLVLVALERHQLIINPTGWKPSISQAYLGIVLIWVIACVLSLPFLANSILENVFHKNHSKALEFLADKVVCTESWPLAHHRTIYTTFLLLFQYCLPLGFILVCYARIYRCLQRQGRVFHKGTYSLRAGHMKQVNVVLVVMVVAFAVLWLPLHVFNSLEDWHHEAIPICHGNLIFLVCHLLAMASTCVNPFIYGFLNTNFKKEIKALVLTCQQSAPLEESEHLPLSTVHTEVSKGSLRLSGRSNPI
Assay [2] addresses T2, hNPY2R. The assay can be described thus: CaFlux Assay (FLIPR), Y2R. Further details: expressed in transfected cells; host or cells: HEK-293 stably expressing G protein chimera Gaqi9.
Protocol: Hek-293 cells were stably transfected with the G protein chimera Gaqi9 and the hygromycin-B resistance gene were further transfected with the human NPY2 receptor and G418 antibiotic selection. Following selection in both hygromycin-B and G418, individual clones were assayed for their response to PYY. The transfected cells were cultured in DMEM medium supplemented with 10% fetal bovine serum, 50 μg/mL hygromycin-B 2 mM glutamine, 100 U/mL penicillin, 100 μg/mL streptomycin and 250 μg/mL G418. Cells are harvested with trypsin-EDTA and counted using ViaCount reagent. The cell suspension volume is adjusted to 4.8×10^5 cells/mL with complete growth media. Aliquots of 25 μL are dispensed into 384 well Poly-D Lysine coated black/clear microplates (Falcon) and the microplates were placed in a 37° C. CO2 incubator overnight. Loading Buffer (Calcium-3 Assay Kit, Molecular Devices) was prepared by dissolving the contents of one vial (Express Kit) into 1000 mL Hank's Balanced Salt Solution containing 20 mM HEPES and 5 mM probenecid. Aliquots of 25 μL of diluted dye were dispensed into the cell plates and the plates are then incubated for 1 hour at 37° C. During the incubation, test compounds were prepared at 3.5× the desired concentration in HBSS (20 mM HEPES)/0.05% BSA/1% DMSO and transferred to a 384 well plate for use on FLIPR. After incubation, both the cell and compound plates were brought to the FLIPR and 20 μL of the diluted compounds were transferred to the cell plates by the FLIPR. During the assay, fluorescence readings were taken simultaneously from all 384 wells of the cell plate every 1.5 seconds. Five readings were taken to establish a stable baseline, and then 20 μL of sample was rapidly (30 μL/sec) and simultaneously added to each well of the cell plate. The fluorescence was continuously monitored before, during and after sample addition for a total elapsed time of 100 seconds. Responses (increase in peak fluorescence) in each well following addition were determined. The initial fluorescence reading from each well, prior to ligand stimulation, was used as a zero baseline value for the data from that well. The responses are expressed as % of maximal response of the positive control.

By EC50 is commonly meant the concentration at which the effect is half-maximal.

`CCCCCCCCCCCCCCCCCCCC(=O)N[C@H](C(=O)N[C@H](C(=O)NCCCC[C@H](NC(=O)[C@@H](N)[C@@H](C)CC)C(=O)N1CCN(c2ccc3ncn(CC(=O)N[C@@H](CCCNC(=N)N)C(=O)N[C@@H](Cc4c[nH]cn4)C(=O)N[C@@H](Cc4ccc(O)cc4)C(=O)N[C@@H](CC(C)C)C(=O)N[C@@H](CC(N)=O)C(=O)N[C@@H](Cc4c[nH]c5ccccc45)C(=O)N[C@H](C(=O)N[C@H](C(=O)N[C@@H](CCCNC(=N)N)C(=O)N[C@@H](CCC(N)=O)C(=O)N(C)[C@@H](CCCNC(=N)N)C(=O)N[C@@H](Cc4ccc(O)cc4)C(N)=O)[C@@H](C)O)C(C)C)c(=O)c3c2)CC1)[C@@H](C)O)[C@@H](C)O` [Example 43]: the EC50 at Y5R is 243 nM; at hNPY2R [1] it was 0.26 nM; at Y1R, greater than 5000 nM; at Y4R, greater than 5000 nM; on hNPY2R [2], 0.074 nM. The Emax on Y5R is 23%.
In the case of `CCCCCCCCCCCC(=O)N[C@@H](CCC(=O)O)C(=O)NCCCC[C@H](NC(=O)[C@@H](N)[C@@H](C)CC)C(=O)N1CCN(c2ccc3ncn(CC(=O)N[C@@H](CCCNC(=N)N)C(=O)N[C@@H](Cc4c[nH]cn4)C(=O)N[C@@H](Cc4ccc(O)cc4)C(=O)N[C@@H](CC(C)C)C(=O)N[C@@H](CC(N)=O)C(=O)N[C@@H](Cc4c[nH]c5ccccc45)C(=O)N[C@H](C(=O)N[C@H](C(=O)N[C@@H](CCCNC(=N)N)C(=O)N[C@@H](CCC(N)=O)C(=O)N(C)[C@@H](CCCNC(=N)N)C(=O)N[C@@H](Cc4ccc(O)cc4)C(N)=O)[C@@H](C)O)C(C)C)c(=O)c3c2)CC1` [Example 11], the EC50 was 3550 nM at Y5R; 3.6 nM on hNPY2R [1]; greater than 5000 nM at Y1R; 2430 nM at Y4R; 0.026 nM at hNPY2R [2].
Regarding `CCCCCCCCCCCCCCCCCCCC(=O)NCCOCCOCCNC(=O)CCC(=O)NCCCC[C@H](NC(=O)[C@@H](N)[C@@H](C)CC)C(=O)N1CCN(c2ccc3ncn(CC(=O)N[C@@H](CCCNC(=N)N)C(=O)N[C@@H](Cc4c[nH]cn4)C(=O)N[C@@H](Cc4ccc(O)cc4)C(=O)N[C@@H](CC(C)C)C(=O)N[C@@H](CC(N)=O)C(=O)N[C@@H](Cc4c[nH]c5ccccc45)C(=O)N[C@H](C(=O)N[C@H](C(=O)N[C@@H](CCCNC(=N)N)C(=O)N[C@@H](CCC(N)=O)C(=O)N(C)[C@@H](CCCNC(=N)N)C(=O)N[C@@H](Cc4ccc(O)cc4)C(N)=O)[C@@H](C)O)C(C)C)c(=O)c3c2)CC1` [Example 37], the EC50 at Y5R is 77.9 nM; at hNPY2R [1] it was 0.13 nM; at Y1R it was greater than 5000 nM; at Y4R it was greater than 5000 nM; on hNPY2R [2] it was 0.367 nM. Besides, on Y5R, the Emax is 48%.
`CCCCCCCCCCCCCCCC(=O)NCCC(=O)NCCCC[C@H](NC(=O)[C@@H](N)[C@@H](C)CC)C(=O)N1CCN(c2ccc3ncn(CC(=O)N[C@@H](CCCNC(=N)N)C(=O)N[C@@H](Cc4c[nH]cn4)C(=O)N[C@@H](Cc4ccc(O)cc4)C(=O)N[C@@H](CC(C)C)C(=O)N[C@@H](CC(N)=O)C(=O)N[C@@H](Cc4c[nH]c5ccccc45)C(=O)N[C@H](C(=O)N[C@H](C(=O)N[C@@H](CCCNC(=N)N)C(=O)N[C@@H](CCC(N)=O)C(=O)N(C)[C@@H](CCCNC(=N)N)C(=O)N[C@@H](Cc4ccc(O)cc4)C(N)=O)[C@@H](C)O)C(C)C)c(=O)c3c2)CC1` [Example 20]: the half-maximal effective concentration (EC50) was 1880 nM on Y5R; 0.26 nM at hNPY2R [1]; greater than 5000 nM on Y1R; greater than 5000 nM at Y4R; 0.015 nM on hNPY2R [2].
On to `CCCCCCCCCCCCCCCCCCCC(=O)N[C@@H](CO)C(=O)N[C@@H](CO)C(=O)NCCCC[C@H](NC(=O)[C@@H](N)[C@@H](C)CC)C(=O)N1CCN(c2ccc3ncn(CC(=O)N[C@@H](CCCNC(=N)N)C(=O)N[C@@H](Cc4c[nH]cn4)C(=O)N[C@@H](Cc4ccc(O)cc4)C(=O)N[C@@H](CC(C)C)C(=O)N[C@@H](CC(N)=O)C(=O)N[C@@H](Cc4c[nH]c5ccccc45)C(=O)N[C@H](C(=O)N[C@H](C(=O)N[C@@H](CCCNC(=N)N)C(=O)N[C@@H](CCC(N)=O)C(=O)N(C)[C@@H](CCCNC(=N)N)C(=O)N[C@@H](Cc4ccc(O)cc4)C(N)=O)[C@@H](C)O)C(C)C)c(=O)c3c2)CC1` [Example 41], for which the EC50 on Y5R was 1830 nM; at hNPY2R [1] it was 0.11 nM; on Y1R, greater than 5000 nM; at Y4R, greater than 5000 nM; at hNPY2R [2], 0.165 nM. Further, at Y5R, the Emax stood at 37%.
With `CCCCCCCCCCCCCCCC(=O)N[C@H](C(=O)N[C@@H](CCCCN)C(=O)N1CCN(c2ccc3ncn(CC(=O)N[C@@H](CCCNC(=N)N)C(=O)N[C@@H](Cc4c[nH]cn4)C(=O)N[C@@H](Cc4ccc(O)cc4)C(=O)N[C@@H](CC(C)C)C(=O)N[C@@H](CC(N)=O)C(=O)N[C@@H](Cc4c[nH]c5ccccc45)C(=O)N[C@H](C(=O)N[C@H](C(=O)N[C@@H](CCCNC(=N)N)C(=O)N[C@@H](CCC(N)=O)C(=O)N(C)[C@@H](CCCNC(=N)N)C(=O)N[C@@H](Cc4ccc(O)cc4)C(N)=O)[C@@H](C)O)C(C)C)c(=O)c3c2)CC1)[C@@H](C)CC` [Example 15], the EC50 is greater than 5000 nM at Y5R; 0.97 nM on hNPY2R [1]; greater than 5000 nM at Y1R; 1360 nM on Y4R; 1.03 nM at hNPY2R [2].
`CCCCCCCCCCCCCCCCCCCC(=O)NCCOCCNC(=O)CCC(=O)NCCCC[C@H](NC(=O)[C@@H](N)[C@@H](C)CC)C(=O)N1CCN(c2ccc3ncn(CC(=O)N[C@@H](CCCNC(=N)N)C(=O)N[C@@H](Cc4c[nH]cn4)C(=O)N[C@@H](Cc4ccc(O)cc4)C(=O)N[C@@H](CC(C)C)C(=O)N[C@@H](CC(N)=O)C(=O)N[C@@H](Cc4c[nH]c5ccccc45)C(=O)N[C@H](C(=O)N[C@H](C(=O)N[C@@H](CCCNC(=N)N)C(=O)N[C@@H](CCC(N)=O)C(=O)N(C)[C@@H](CCCNC(=N)N)C(=O)N[C@@H](Cc4ccc(O)cc4)C(N)=O)[C@@H](C)O)C(C)C)c(=O)c3c2)CC1` [Example 39]: the EC50 at Y5R is 285 nM; on hNPY2R [1], 0.21 nM; at Y1R it was greater than 5000 nM; at Y4R, greater than 5000 nM; at hNPY2R [2], 0.073 nM. In addition, the Emax on Y5R turned out to be 50%.
As to `CCCCCCCCCCCC(=O)NCCC(=O)NCCCC[C@H](NC(=O)[C@@H](N)[C@@H](C)CC)C(=O)N1CCN(c2ccc3ncn(CC(=O)N[C@@H](CCCNC(=N)N)C(=O)N[C@@H](Cc4c[nH]cn4)C(=O)N[C@@H](Cc4ccc(O)cc4)C(=O)N[C@@H](CC(C)C)C(=O)N[C@@H](CC(N)=O)C(=O)N[C@@H](Cc4c[nH]c5ccccc45)C(=O)N[C@H](C(=O)N[C@H](C(=O)N[C@@H](CCCNC(=N)N)C(=O)N[C@@H](CCC(N)=O)C(=O)N(C)[C@@H](CCCNC(=N)N)C(=O)N[C@@H](Cc4ccc(O)cc4)C(N)=O)[C@@H](C)O)C(C)C)c(=O)c3c2)CC1` [Example 10], the EC50 at Y5R is 4740 nM; on hNPY2R [1], 5.2 nM; on Y1R, greater than 5000 nM; on Y4R, 3510 nM; at hNPY2R [2], 0.016 nM.
